± gives the expanded uncertainty stated by the source.
Assay: excess molar enthalpy (molar enthalpy of mixing); xn = mol fraction of the nth substance listed
Conditions: Liquid, Flow calorimetry

## C1CCCCC1 [cyclohexane] + CCCC(C)O
298.15 K, x2 = 0
  excess molar enthalpy: 0 ± 0.000239 kcal/mol
313.15 K, x2 = 0
  excess molar enthalpy: 0 ± 0.000239 kcal/mol

## CCCC(C)O (centres undefined) [pentan-2-ol] + C1CCCCC1
298.15 K, x1 = 0.0496
  excess molar enthalpy: 0.105 ± 0.00143 kcal/mol
298.15 K, x1 = 0.1013
  excess molar enthalpy: 0.144 ± 0.00186 kcal/mol
298.15 K, x1 = 0.151
  excess molar enthalpy: 0.169 ± 0.00217 kcal/mol
298.15 K, x1 = 0.2008
  excess molar enthalpy: 0.189 ± 0.00239 kcal/mol
298.15 K, x1 = 0.2506
  excess molar enthalpy: 0.205 ± 0.00263 kcal/mol
298.15 K, x1 = 0.3005
  excess molar enthalpy: 0.218 ± 0.00287 kcal/mol
298.15 K, x1 = 0.3503
  excess molar enthalpy: 0.228 ± 0.00287 kcal/mol
298.15 K, x1 = 0.4001
  excess molar enthalpy: 0.232 ± 0.00287 kcal/mol
298.15 K, x1 = 0.4499
  excess molar enthalpy: 0.234 ± 0.00287 kcal/mol
298.15 K, x1 = 0.5002
  excess molar enthalpy: 0.228 ± 0.00287 kcal/mol
298.15 K, x1 = 0.5499
  excess molar enthalpy: 0.22 ± 0.00287 kcal/mol
298.15 K, x1 = 0.6002
  excess molar enthalpy: 0.207 ± 0.00263 kcal/mol
298.15 K, x1 = 0.6501
  excess molar enthalpy: 0.187 ± 0.00239 kcal/mol
298.15 K, x1 = 0.7002
  excess molar enthalpy: 0.166 ± 0.00213 kcal/mol
298.15 K, x1 = 0.7504
  excess molar enthalpy: 0.146 ± 0.00189 kcal/mol
298.15 K, x1 = 0.8007
  excess molar enthalpy: 0.121 ± 0.0016 kcal/mol
298.15 K, x1 = 0.8509
  excess molar enthalpy: 0.0932 ± 0.00124 kcal/mol
298.15 K, x1 = 0.9013
  excess molar enthalpy: 0.0625 ± 0.000884 kcal/mol
298.15 K, x1 = 0.9496
  excess molar enthalpy: 0.0302 ± 0.000502 kcal/mol
298.15 K, x1 = 1
  excess molar enthalpy: 0 ± 0.000239 kcal/mol
313.15 K, x1 = 0.0496
  excess molar enthalpy: 0.133 ± 0.00177 kcal/mol
313.15 K, x1 = 0.1013
  excess molar enthalpy: 0.181 ± 0.00232 kcal/mol
313.15 K, x1 = 0.151
  excess molar enthalpy: 0.208 ± 0.00263 kcal/mol
313.15 K, x1 = 0.2008
  excess molar enthalpy: 0.229 ± 0.00287 kcal/mol
313.15 K, x1 = 0.2506
  excess molar enthalpy: 0.246 ± 0.00311 kcal/mol
313.15 K, x1 = 0.3003
  excess molar enthalpy: 0.258 ± 0.00335 kcal/mol
313.15 K, x1 = 0.3502
  excess molar enthalpy: 0.265 ± 0.00335 kcal/mol
313.15 K, x1 = 0.4002
  excess molar enthalpy: 0.265 ± 0.00335 kcal/mol
313.15 K, x1 = 0.4501
  excess molar enthalpy: 0.265 ± 0.00335 kcal/mol
313.15 K, x1 = 0.5001
  excess molar enthalpy: 0.259 ± 0.00335 kcal/mol
313.15 K, x1 = 0.5501
  excess molar enthalpy: 0.251 ± 0.00311 kcal/mol
313.15 K, x1 = 0.6001
  excess molar enthalpy: 0.236 ± 0.00311 kcal/mol
313.15 K, x1 = 0.6502
  excess molar enthalpy: 0.219 ± 0.00287 kcal/mol
313.15 K, x1 = 0.7003
  excess molar enthalpy: 0.198 ± 0.00263 kcal/mol
313.15 K, x1 = 0.7505
  excess molar enthalpy: 0.171 ± 0.0022 kcal/mol
313.15 K, x1 = 0.8007
  excess molar enthalpy: 0.144 ± 0.00186 kcal/mol
313.15 K, x1 = 0.851
  excess molar enthalpy: 0.11 ± 0.00146 kcal/mol
313.15 K, x1 = 0.9013
  excess molar enthalpy: 0.0756 ± 0.00105 kcal/mol
313.15 K, x1 = 0.9496
  excess molar enthalpy: 0.0394 ± 0.000621 kcal/mol
313.15 K, x1 = 1
  excess molar enthalpy: 0 ± 0.000239 kcal/mol

## CCCC(C)O (centres undefined) [pentan-2-ol] + Cc1ccccc1
298.15 K, x1 = 0.0508
  excess molar enthalpy: 0.149 ± 0.00198 kcal/mol
298.15 K, x1 = 0.0998
  excess molar enthalpy: 0.226 ± 0.00287 kcal/mol
298.15 K, x1 = 0.151
  excess molar enthalpy: 0.276 ± 0.00359 kcal/mol
298.15 K, x1 = 0.2002
  excess molar enthalpy: 0.31 ± 0.00382 kcal/mol
298.15 K, x1 = 0.2496
  excess molar enthalpy: 0.335 ± 0.0043 kcal/mol
298.15 K, x1 = 0.3009
  excess molar enthalpy: 0.354 ± 0.00454 kcal/mol
298.15 K, x1 = 0.3506
  excess molar enthalpy: 0.367 ± 0.00454 kcal/mol
298.15 K, x1 = 0.4003
  excess molar enthalpy: 0.373 ± 0.00478 kcal/mol
298.15 K, x1 = 0.4501
  excess molar enthalpy: 0.373 ± 0.00478 kcal/mol
298.15 K, x1 = 0.5001
  excess molar enthalpy: 0.369 ± 0.00454 kcal/mol
298.15 K, x1 = 0.5501
  excess molar enthalpy: 0.359 ± 0.00454 kcal/mol
298.15 K, x1 = 0.6003
  excess molar enthalpy: 0.344 ± 0.0043 kcal/mol
298.15 K, x1 = 0.6506
  excess molar enthalpy: 0.32 ± 0.00406 kcal/mol
298.15 K, x1 = 0.701
  excess molar enthalpy: 0.293 ± 0.00359 kcal/mol
298.15 K, x1 = 0.7495
  excess molar enthalpy: 0.259 ± 0.00335 kcal/mol
298.15 K, x1 = 0.8002
  excess molar enthalpy: 0.22 ± 0.00287 kcal/mol
298.15 K, x1 = 0.8509
  excess molar enthalpy: 0.173 ± 0.00222 kcal/mol
298.15 K, x1 = 0.8996
  excess molar enthalpy: 0.12 ± 0.00158 kcal/mol
298.15 K, x1 = 0.9508
  excess molar enthalpy: 0.0597 ± 0.000884 kcal/mol
298.15 K, x1 = 1
  excess molar enthalpy: 0 ± 0.000239 kcal/mol
313.15 K, x1 = 0.0508
  excess molar enthalpy: 0.154 ± 0.00206 kcal/mol
313.15 K, x1 = 0.0999
  excess molar enthalpy: 0.245 ± 0.00311 kcal/mol
313.15 K, x1 = 0.151
  excess molar enthalpy: 0.307 ± 0.00382 kcal/mol
313.15 K, x1 = 0.2003
  excess molar enthalpy: 0.346 ± 0.0043 kcal/mol
313.15 K, x1 = 0.2496
  excess molar enthalpy: 0.375 ± 0.00478 kcal/mol
313.15 K, x1 = 0.301
  excess molar enthalpy: 0.397 ± 0.00502 kcal/mol
313.15 K, x1 = 0.3506
  excess molar enthalpy: 0.408 ± 0.00502 kcal/mol
313.15 K, x1 = 0.4003
  excess molar enthalpy: 0.414 ± 0.00526 kcal/mol
313.15 K, x1 = 0.4502
  excess molar enthalpy: 0.414 ± 0.00526 kcal/mol
313.15 K, x1 = 0.5001
  excess molar enthalpy: 0.407 ± 0.00502 kcal/mol
313.15 K, x1 = 0.5502
  excess molar enthalpy: 0.394 ± 0.00502 kcal/mol
313.15 K, x1 = 0.6003
  excess molar enthalpy: 0.377 ± 0.00478 kcal/mol
313.15 K, x1 = 0.6505
  excess molar enthalpy: 0.353 ± 0.0043 kcal/mol
313.15 K, x1 = 0.701
  excess molar enthalpy: 0.32 ± 0.00406 kcal/mol
313.15 K, x1 = 0.7495
  excess molar enthalpy: 0.282 ± 0.00359 kcal/mol
313.15 K, x1 = 0.8002
  excess molar enthalpy: 0.239 ± 0.00311 kcal/mol
313.15 K, x1 = 0.851
  excess molar enthalpy: 0.187 ± 0.00239 kcal/mol
313.15 K, x1 = 0.8998
  excess molar enthalpy: 0.132 ± 0.00172 kcal/mol
313.15 K, x1 = 0.9509
  excess molar enthalpy: 0.0661 ± 0.000956 kcal/mol
313.15 K, x1 = 1
  excess molar enthalpy: 0 ± 0.000239 kcal/mol

## Cc1ccccc1 [toluene] + CCCC(C)O
298.15 K, x2 = 0
  excess molar enthalpy: 0 ± 0.000239 kcal/mol
313.15 K, x2 = 0
  excess molar enthalpy: 0 ± 0.000239 kcal/mol
